Measurements reported in patent US11771648B2, “Carrier for oromucosal administration of physiologically active substances” (INSTAR TECHNOLOGIES A.S., priority 2011, dated 2023).

Assay: solubility in water (stated in words, no method described)
Assay type: physicochemical
Details: qualitative statement

SMILES: COc1ccc2cc(CCC(C)=O)ccc2c1 [Nabumetone, 4-(6-methoxy-2-nafthyl)-2-butanon]
- solubility in water: very well soluble in water

SMILES: CNS(=O)(=O)Cc1ccc2[nH]cc(CCN(C)C)c2c1 [Sumatriptane, 1-[3-(2-dimethylaminoethyl)-1H-indol-5-yl]-N-methyl-methanesulfonamide]
- solubility in water: good solubility in water
